Laboratory results from patent US20020164721A1, “Design of a polyepitopic construct for the induction of HLA-A2.1 restricted HIV 1 specific CTL responses using HHD mice” (priority 1999, published 2002).
Values joined by “and” are separate entries in the source; they are usually repeats but may differ in a detail not shown here. Equal values may be shown once. “Also recorded” adds a separate entry of the source. Read-outs that look alike come from different tables or passages of the source.

Legend:
[1] = test system: peptide-pulsed HHD-transfected RMAS cells; format: in vivo, HHD mice; conditions: for Maximum specific lysis (%): each responder mouse
[2] = test system: peptide-pulsed HHD-transfected RMAS cells; format: in vivo, HHD mice
[3] = test system: HHD-transfected RMA-S cells loaded with relevant peptide; assay: CTL response of HHD mice injected s.c. with tumor epitopic peptide in IFA (51Cr-release assay); format: in vivo; conditions: for hierarchy of CTL inducers: peptide alone in IFA, by number of responding mice and level of specific lysis; for R/T (responder versus tested mice) / lysis in % (maximal lysis for each responder mouse): peptide s.c. in IFA; for R/T (responder versus tested mice): no helper, responder = at least 10% specific lysis; for lysis in % (maximal lysis for each responder mouse): usually 60:1 E/T ratio
[4] = test system: HHD-transfected RMA-S target cells loaded with relevant peptide; assay: CTL response of HHD mice co-immunized in IFA with tumor peptide and HBVc.128 helper peptide; format: in vivo; conditions: for R/T (responder versus tested mice): 50 μg CD8 peptide + 140 μg HBVc.128 helper in IFA; for CTL response with helper peptide (in words): co-injected with HBVc.128 helper, compared with peptide alone
[5] = test system: HHD-transfected RMA-S cells loaded with relevant peptide; assay: CTL response of A2A2Kb mice injected s.c. with tumor epitopic peptide in IFA (51Cr-release assay); format: in vivo; conditions: for R/T (responder versus tested mice): responder = at least 10% specific lysis
[6] = test system: peptide-loaded HHD-transfected RMA-S cells and HHD-transfected HeLa cells expressing the polyepitope; assay: Melanoma polyepitopic pCMV-B10 DNA immunization of HHD mice, CTL assay; format: in vivo; conditions: pCMV-B10 DNA with 10 melanoma epitopes, FIG. 1C and D
[7] = biological target: T1, HLA-A2.1 molecules (Homo sapiens, UniProt P04439, D140Y/D185E/D98H/E176V/E277Q/G131W/G231S/I119V/I121R/I166T/I218V/L300P/L318F/N151K/N90K/P208A/P217A/Q86G/Q94H/R138H/R169H/T345S); format: binding
T1 construct: Using TAP-deficient, HLA-A2.1^+ T2 cells, we evaluated these parameters in an immunofluorescence assay; endogenous in cells; host or cells: T2 cells (TAP-deficient, HLA-A2.1+)

[8] = test system: HHD-transfected RMAS cells loaded with relevant peptide; assay: CTL response of HHD mice immunized with lipopeptides; format: in vivo; conditions: lipopeptide of the epitope; individual mice 1-6
[9] = test system: HHD-transfected RMAS cells loaded with relevant peptide; assay: CTL response of HHD mice immunized with peptide-loaded dendritic cells; format: in vivo
[10] = test system: HHD-transfected RMAS cells loaded with relevant peptide; assay: CTL response of HHD mice immunized with monoepitopic pCMV-B10 DNA; format: in vivo; conditions: pCMV-B10 DNA encoding the epitope; individual mice 1-6
[11] = by number of responder mice and strength of responses, peptide in IFA
[12] = without helper peptide, 100 μg peptide s.c. in IFA
[13] = with helper peptide, 50 μg CD8 + 140 μg HBV core T13L in IFA
[14] = wild-type HIV 1 peptides, reference I9V, T2 cells

Sequence	classification as immunogen [1, 11]	Responder/tested mice [1, 12]	Responder/tested mice [2, 13]	hierarchy of CTL inducers [3]	R/T (responder versus tested mice) [3]	R/T (responder versus tested mice) [4]	R/T (responder versus tested mice) [5]	CTL response against the epitope after melanoma polyepitope DNA immunization (in words) [6]	RA (relative affinity) [7]	further results
AFHHVAREL [A9L, HIV 1 NEF (188-196) CD8 epitopic peptide]	inefficient	0/6	0/6							
ESELVNQIIEQ [E11Q]										classification as immunogen ([1]; mouse, in vivo): inefficient; Responder/tested mice ([1]; mouse, in vivo, sc): 0/6; Responder/tested mice ([2]; mouse, in vivo): 0/6
FLWGPRALV [MAGE-3.271]				weak	1/6	6/6	0/6	No specific lysis		lysis in % (maximal lysis for each responder mouse) [3]: (33) %; CTL response with helper peptide (in words) [4]: good CTL responses in a large proportion of mice
IISAVVGIL [Her2/neu.654, Her2/neu 654-662 epitopic peptide]				weak	1/6	0/6	0/6			lysis in % (maximal lysis for each responder mouse) [3]: (42) %
ILKEPVHGV [I9V]	strong	4/6	5/6							
ILTVILGVL [Melan-A/MART-1.32, Melan-A/MART-1 32-40 epitopic peptide]				inefficient	0/6	1/6	0/6	did not elicit CTL responses; also recorded: No specific lysis	21.1	lysis in % ([4]; co-injected with HBVc.128 helper peptide in IFA, each responder mouse): (10) %
ITDQVPFSV [gp100.209]				weak	1/6	3/6	0/6	elicited CTL responses depending on mice; also recorded: No specific lysis		lysis in % (maximal lysis for each responder mouse) [3]: (23) %
KTWGQYWQV [gp100.154]				strong	4/6	9/11	5/6	Strong responses		CTL response with helper peptide (in words) [4]: stronger responses in a larger proportion of mice
LLDGTATLRL [gp100.457]				inefficient	0/6	5/6	0/6	Significant responses	1.65	CTL response with helper peptide (in words) [4]: good CTL responses in a large proportion of mice
LLGRNSFEV [p53.264]				inefficient	0/7	2/3	0/6			
LLWKGEGAV [L9V, HIV 1 POL (956-964) CD8 epitopic peptide]	intermediate	3/6								
MLLAVLYCL [Tyrosinase.1, Tyrosinase 1-9 epitopic peptide]				inefficient	0/10	5/6	0/6	did not elicit CTL responses; also recorded: No specific lysis	>60	CTL response with helper peptide (in words) [4]: good CTL responses in a large proportion of mice
PLTFGWCFKL [P10L, HIV 1 NEF (134-143) CD8 epitopic peptide]	inefficient	0/6	0/6							RA (relative affinity) [7, 14]: >100/ND
PLVKLWYQL [P9L, HIV 1 POL (576-584) CD8 epitopic peptide]	inefficient	0/6	0/6							RA (relative affinity) [7, 14]: >100/ND
RLRDLLLIV [R9V, HIV 1 ENV gp41 (260-268) CD8 epitopic peptide]	intermediate	1/6	0/6						>100/ND	Maximum specific lysis (%) ([1]; without helper peptide): 14%
RMPEAAPPV [p53.65, p53 65-73 epitopic peptide]				intermediate	4/6	5/6	0/6		0.91	CTL response with helper peptide (in words) [4]: stronger responses in a larger proportion of mice
STPPPGTRV [p53.149, p53 149-157 epitopic peptide]				inefficient	0/6	3/6	0/6			
TLGIVCPI [HPV E7.86, HPV16 E7 86-93 epitopic peptide]				inefficient	0/6	2/6	2/6			
TLNAWVKVV [T9V]	intermediate	2/6	3/5							
VIYQYMDDL [V9L, HIV 1 POL (334-342) CD8 epitopic peptide]	intermediate	1/6	1/6							Maximum specific lysis (%) ([1]; without helper peptide): 34%; Maximal specific lysis (%) ([2]; with helper peptide, each responder mouse): 57%
VLYRYGSFSV [gp100.476, gp100 476-485 human melanoma epitopic peptide]				weak	2/6	6/7	1/6	did not elicit CTL responses	10	lysis in % (maximal lysis for each responder mouse) ([5]; usually 60:1 E/T ratio): (29) %
YMDGTMSQV [Tyrosinase.368-D]				weak	1/6	2/6	0/6	elicited CTL responses depending on mice	2.27	lysis in % (highest specific lysis) [8]: 0% (3×) and 10% and 1% and 4%; lysis in % (maximal lysis for each responder mouse) [3]: (10) %; lysis in % (highest specific lysis) ([9]; individual mice 1-6, usually 60/1 E/T): 12% and 20% and 8% and 3% and 7% and 23%; lysis in % after a second in vitro restimulation ([9]; second restimulation with 10% TCGF, individual mice 1-6): (64) %; also recorded: (92) %; also recorded: (71) %; also recorded: (68) %; also recorded: (56) %; lysis in % (highest specific lysis) [10]: 57% and 55% and 28% (2×) and 58% and 56%
